# Ends that are not written are not given here.
# Experiments:
# Experiment in all cases: Inhibition-zone assay (CL)
# Format in all cases: cell-based
# [1] = tested on: Staphylococcus warneri ATCC 1.2824; conditions: SW ATCC 1.2824, N.A. = no activity at 0.8 nmol peptide each well
# Protocol: (§1) The antimicrobial activity of seven peptides, including MeuFSPL-1, MeuFSPL-2, Marmelittin, Melittin, Meucin-22, Marcin-22, and MeuTXKβ1, was evaluated by the inhibition-zone assay previously described in our studies (Hultmark, [1998]; Zhu et al., [2012a]; Zhu and Gao, [2014]). Temperatures used were 30 or 37°C for bacteria or 28°C for fungi. Media used were Luria-Bertani (LB) Broth (10 g tryptone, 5 g yeast extract, and 5 g NaCl in 1 l of water) or Nutrient Broth (10 g peptone, 5 g beef extract powder, and 5 g NaCl in 1 l of water) or GYM(Isp2) (4 g yeast extract, 10 g malt extract, 4 g glucose, 2 g CaCO3 in 1 l of water) for bacteria or Potato Dextrose Broth (200 g patato and 20 g glucose in 1 l of water) for fungi. To make plates, 10 μl of microbial culture (~2 × 10^6 bacterial cells or fungal spores/ml) were mixed in 6 ml of medium containing 0.8% agar and poured into Peri dishes of 9.0 cm diameter. Wells with a diameter of 2 mm were punched into the medium, filled with 2 μl of sample each well. In this assay, three different doses of peptides were applied to three independent wells in one standard bacterial plate. After incubation overnight, inhibition zones were measured and used to calculate lethal concentrations (CL), a concentration just sufficient to inhibit bacterial growth (Hultmark, [1998]; Gao et al., [2009]). CL values are calculated from a plot of d^2 against log n, where d is the diameter (in cm) and n is the amount of sample applied in the well (in nmol). The plot is linear and thus CL can be calculated from the slope (k) and the intercept (m) of this plot. The formula used here is CL = 2.93/ak10^m/k, where “a” is the thickness of the bacterial plate and “CL” is in μM.
# [2] = tested on: penicillin-sensitive Staphylococcus epidermidis P1111; conditions: PSSE P1111, N.A. = no activity at 0.8 nmol peptide each well
# Protocol: as §1
# [3] = tested on: Stenotrophomonas maltophilia CGMCC 1.1788; conditions: SMAL CGMCC 1.1788, N.A. = no activity at 0.8 nmol peptide each well
# Protocol: as §1
# [4] = tested on: Streptococcus salivarius ATCC 1.2498; conditions: SSAL ATCC 1.2498, N.A. = no activity at 0.8 nmol peptide each well
# Protocol: as §1
# [5] = tested on: Escherichia coli ATCC 25922; conditions: EC ATCC 25922, N.A. = no activity at 0.8 nmol peptide each well
# Protocol: as §1
# [6] = tested on: methicillin-sensitive Staphylococcus aureus CGMCC 1.89; conditions: MSSA CGMCC 1.89, N.A. = no activity at 0.8 nmol peptide each well
# Protocol: as §1
# [7] = tested on: Bacillus subtilis CGMCC 1.2428; conditions: BS CGMCC 1.2428, N.A. = no activity at 0.8 nmol peptide each well
# Protocol: as §1
# [8] = tested on: penicillin-resistant Staphylococcus aureus P1383; conditions: PRSA P1383; inhibition-zone assay; N.A. = no activity at 0.8 nmol peptide each well
# Protocol: as §1
# [9] = tested on: Escherichia coli CIP. J14b; conditions: EC CIP. J14b, N.A. = no activity at 0.8 nmol peptide each well
# Protocol: as §1
# [10] = tested on: methicillin-resistant Staphylococcus aureus P1374; conditions: MRSA P1374, N.A. = no activity at 0.8 nmol peptide each well
# Protocol: as §1
# [11] = tested on: Staphylococcus aureus J700; conditions: SA J700, N.A. = no activity at 0.8 nmol peptide each well
# Protocol: as §1
# [12] = tested on: methicillin-resistant Staphylococcus aureus P1386; conditions: MRSA P1386, N.A. = no activity at 0.8 nmol peptide each well
# Protocol: as §1
# [13] = tested on: Staphylococcus aureus J698; conditions: SA J698, N.A. = no activity at 0.8 nmol peptide each well
# Protocol: as §1
# Escherichia coli D. G2b = conditions: EC D. G2b, N.A. = no activity at 0.8 nmol peptide each well
# Protocol: as §1
# [14] = tested on: Escherichia coli Am. J23a; conditions: EC Am. J23a, N.A. = no activity at 0.8 nmol peptide each well
# Protocol: as §1
# [15] = tested on: Micrococcus luteus CGMCC 1.0290; conditions: ML CGMCC 1.0290, N.A. = no activity at 0.8 nmol peptide each well
# Protocol: as §1
# [16] = tested on: Escherichia coli Am. J16c; conditions: EC Am. J16c, N.A. = no activity at 0.8 nmol peptide each well
# Protocol: as §1
# [17] = tested on: methicillin-resistant coagulase-negative Staphylococcus P1369; conditions: MRCNS P1369, N.A. = no activity at 0.8 nmol peptide each well
# Protocol: as §1
# [18] = tested on: Staphylococcus aureus J685; conditions: SA J685, N.A. = no activity at 0.8 nmol peptide each well
# Protocol: as §1
# [19] = tested on: Streptococcus sanguinis ATCC 1.2497; conditions: SSAN ATCC 1.2497, N.A. = no activity at 0.8 nmol peptide each well
# Protocol: as §1
# [20] = tested on: Streptococcus mutans ATCC 1.2499; conditions: SM ATCC 1.2499, N.A. = no activity at 0.8 nmol peptide each well
# Protocol: as §1
# [21] = tested on: Bacillus megaterium CGMCC 1.0459; conditions: BM CGMCC 1.0459, N.A. = no activity at 0.8 nmol peptide each well
# Protocol: as §1
# [22] = tested on: penicillin-resistant Staphylococcus epidermidis P1389; conditions: PRSE P1389, N.A. = no activity at 0.8 nmol peptide each well
# Protocol: as §1
molecule,measurement,setting,value
"CC[C@H](C)[C@H](NC(=O)CN)C(=O)NCC(=O)N[C@@H](C)C(=O)N[C@H](C(=O)N[C@@H](CC(C)C)C(=O)N[C@@H](CCCCN)C(=O)N[C@H](C(=O)N[C@@H](CC(C)C)C(=O)N[C@H](C(=O)N[C@H](C(=O)NCC(=O)N[C@@H](CC(C)C)C(=O)N1CCC[C@H]1C(=O)N[C@@H](C)C(=O)N[C@@H](CC(C)C)C(=O)N[C@H](C(=O)N[C@@H](CO)C(=O)N[C@@H](Cc1c[nH]c2ccccc12)C(=O)N[C@H](C(=O)N[C@@H](CCCCN)C(=O)N[C@@H](CCCNC(=N)N)C(=O)N[C@@H](CCCCN)C(=O)N[C@@H](CCCNC(=N)N)C(=O)N[C@@H](CCC(N)=O)C(=O)N[C@@H](CCC(N)=O)C(N)=O)[C@@H](C)CC)[C@@H](C)CC)[C@@H](C)O)[C@@H](C)O)C(C)C)C(C)C [Melittin, reference compound]",Lethal concentration (CL),[1],1.37 µM
same,Lethal concentration (CL),[2],13.4 µM
same,Lethal concentration (CL),[3],18.72 µM
same,Lethal concentration (CL),[4],18.20 µM
same,Lethal concentration (CL),[5],14.4 µM
same,Lethal concentration (CL),[6],7.9 µM
same,Lethal concentration (CL),[7],9.2 µM
same,Lethal concentration (CL),[8],9.1 µM
same,Lethal concentration (CL),[9],18.20 µM
same,Lethal concentration (CL),[10],11.6 µM
same,Lethal concentration (CL),[11],12.08 µM
same,Lethal concentration (CL),[12],9.3 µM
same,Lethal concentration (CL),[13],12.08 µM
same,Lethal concentration (CL),Escherichia coli D. G2b,18.20 µM
same,Lethal concentration (CL),[14],18.20 µM
same,Lethal concentration (CL),[15],7.5 µM
same,Lethal concentration (CL),[16],24.54 µM
same,Lethal concentration (CL),[17],9.3 µM
same,Lethal concentration (CL),[18],13.70 µM
same,Lethal concentration (CL),[19],16.41 µM
same,Lethal concentration (CL),[20],9.37 µM
same,Lethal concentration (CL),[21],11.6 µM
same,Lethal concentration (CL),[22],9.1 µM
FFGHLFKLATKIIPSFFRRKNQ [MAC-22],Lethal concentration (CL),[1],4.45 µM
same,Lethal concentration (CL),[2],1.35 µM
same,Lethal concentration (CL),[3],6.78 µM
same,Lethal concentration (CL),[4],4.22 µM
same,Lethal concentration (CL),[5],10.69 µM
same,Lethal concentration (CL),[6],1.35 µM
same,Lethal concentration (CL),[7],2.11 µM
same,Lethal concentration (CL),[8],2.11 µM
same,Lethal concentration (CL),[9],12.03 µM
same,Lethal concentration (CL),[10],1.35 µM
same,Lethal concentration (CL),[11],2.39 µM
same,Lethal concentration (CL),[12],1.35 µM
same,Lethal concentration (CL),[13],2.39 µM
same,Lethal concentration (CL),Escherichia coli D. G2b,12.95 µM
same,Lethal concentration (CL),[14],12.70 µM
same,Lethal concentration (CL),[15],2.58 µM
same,Lethal concentration (CL),[16],15.15 µM
same,Lethal concentration (CL),[17],1.35 µM
same,Lethal concentration (CL),[18],2.39 µM
same,Lethal concentration (CL),[19],9.12 µM
same,Lethal concentration (CL),[20],4.22 µM
same,Lethal concentration (CL),[21],1.35 µM
same,Lethal concentration (CL),[22],3.72 µM
"FFGHLFKLATKIIPSLFQ [MUC-18, reference compound]",Lethal concentration (CL),[1],11.69 µM
same,Lethal concentration (CL),[2],0.87 µM
same,Lethal concentration (CL),[3],13.72 µM
same,Lethal concentration (CL),[4],9.24 µM
same,Lethal concentration (CL),[6],0.87 µM
same,Lethal concentration (CL),[7],2.11 µM
same,Lethal concentration (CL),[8],3.72 µM
same,Lethal concentration (CL),[9],22.72 µM
same,Lethal concentration (CL),[10],3.35 µM
same,Lethal concentration (CL),[11],6.86 µM
same,Lethal concentration (CL),[12],1.35 µM
same,Lethal concentration (CL),[13],5.16 µM
same,Lethal concentration (CL),Escherichia coli D. G2b,37.28 µM
same,Lethal concentration (CL),[14],22.72 µM
same,Lethal concentration (CL),[16],22.72 µM
same,Lethal concentration (CL),[17],4.89 µM
same,Lethal concentration (CL),[18],8.71 µM
same,Lethal concentration (CL),[19],13.72 µM
same,Lethal concentration (CL),[20],9.32 µM
same,Lethal concentration (CL),[22],3.35 µM
FLFSLIPSAISGLINAFK-NH2 [MeuFSPL-2],Lethal concentration (CL),[1],8.65 µM
same,Lethal concentration (CL),[2],4.77 µM
same,Lethal concentration (CL),[3],3.52 µM
same,Lethal concentration (CL),[4],5.36 µM
same,Lethal concentration (CL),[5],12.16 µM
same,Lethal concentration (CL),[6],3.14 µM
same,Lethal concentration (CL),[7],4.01 µM
same,Lethal concentration (CL),[8],3.52 µM
same,Lethal concentration (CL),[9],37.43 µM
same,Lethal concentration (CL),[10],3.61 µM
same,Lethal concentration (CL),[11],8.44 µM
same,Lethal concentration (CL),[12],5.13 µM
same,Lethal concentration (CL),[13],4.11 µM
same,Lethal concentration (CL),Escherichia coli D. G2b,21.42 µM
same,Lethal concentration (CL),[14],37.43 µM
same,Lethal concentration (CL),[15],1.50 µM
same,Lethal concentration (CL),[17],3.88 µM
same,Lethal concentration (CL),[18],5.36 µM
same,Lethal concentration (CL),[19],2.70 µM
same,Lethal concentration (CL),[20],5.23 µM
same,Lethal concentration (CL),[21],2.67 µM
same,Lethal concentration (CL),[22],5.13 µM
FLFSLIPSAISGLISAFK-NH2 [MeuFSPL-1],Lethal concentration (CL),[1],2.81 µM
same,Lethal concentration (CL),[2],7.36 µM
same,Lethal concentration (CL),[3],1.13 µM
same,Lethal concentration (CL),[4],4.80 µM
same,Lethal concentration (CL),[5],12.50 µM
same,Lethal concentration (CL),[6],5.27 µM
same,Lethal concentration (CL),[7],4.74 µM
same,Lethal concentration (CL),[8],2.81 µM
same,Lethal concentration (CL),[10],6.16 µM
same,Lethal concentration (CL),[11],10.92 µM
same,Lethal concentration (CL),[12],6.24 µM
same,Lethal concentration (CL),[13],4.80 µM
same,Lethal concentration (CL),Escherichia coli D. G2b,25.00 µM
same,Lethal concentration (CL),[14],25.00 µM
same,Lethal concentration (CL),[15],2.26 µM
same,Lethal concentration (CL),[16],43.66 µM
same,Lethal concentration (CL),[17],8.48 µM
same,Lethal concentration (CL),[18],14.72 µM
same,Lethal concentration (CL),[19],5.20 µM
same,Lethal concentration (CL),[20],4.22 µM
same,Lethal concentration (CL),[21],2.10 µM
same,Lethal concentration (CL),[22],7.36 µM
